Tests used:
Assay type in all cases: functional
HT-29 = assay: Growth inhibition of human HT-29 cells assessed as cell growth at 10^-5 M incubated for 48 hrs by sulforhodamine B assay relative to control; conditions: HT-29, 48 h, read-out: Activity
DU-145 = assay: Growth inhibition of human DU145 cells assessed as cell growth at 10^-5 M incubated for 48 hrs by sulforhodamine B assay relative to control; conditions: DU-145, 48 h, read-out: Activity
COLO 205 = assay: Growth inhibition of human COLO205 cells assessed as cell growth at 10^-5 M incubated for 48 hrs by sulforhodamine B assay relative to control; conditions: COLO 205, 48 h, read-out: Activity
OVCAR-8 = assay: Growth inhibition of human OVCAR8 cells assessed as cell growth at 10^-5 M incubated for 48 hrs by sulforhodamine B assay relative to control; conditions: OVCAR-8, 48 h, read-out: Activity
MOLT-4 = assay: Growth inhibition of human MOLT4 cells assessed as cell growth at 10^-5 M incubated for 48 hrs by sulforhodamine B assay relative to control; conditions: MOLT-4, 48 h, read-out: Activity
IGROV-1 = assay: Growth inhibition of human IGROV1 cells assessed as cell growth at 10^-5 M incubated for 48 hrs by sulforhodamine B assay relative to control; conditions: IGROV-1, 48 h, read-out: Activity
EKVX = assay: Growth inhibition of human EKVX cells assessed as cell growth at 10^-5 M incubated for 48 hrs by sulforhodamine B assay relative to control; conditions: read-out: Activity
OVCAR-5 = assay: Growth inhibition of human OVCAR5 cells assessed as cell growth at 10^-5 M incubated for 48 hrs by sulforhodamine B assay relative to control; conditions: OVCAR-5, 48 h, read-out: Activity
M14 = assay: Growth inhibition of human M14 cells assessed as cell growth at 10^-5 M incubated for 48 hrs by sulforhodamine B assay relative to control; conditions: M14, 48 h, read-out: Activity
A549 = assay: Growth inhibition of human A549/ATCC cells assessed as cell growth at 10^-5 M incubated for 48 hrs by sulforhodamine B assay relative to control; conditions: A549, 48 h, read-out: Activity
SK-OV-3 = assay: Growth inhibition of human SKOV3 cells assessed as cell growth at 10^-5 M incubated for 48 hrs by sulforhodamine B assay relative to control; conditions: SK-OV-3, 48 h, read-out: Activity
RPMI-8226 = assay: Growth inhibition of human RPMI8226 cells assessed as cell growth at 10^-5 M incubated for 48 hrs by sulforhodamine B assay relative to control; conditions: RPMI-8226, 48 h, read-out: Activity
LOX IMVI = assay: Growth inhibition of human LOXIMVI cells assessed as cell growth at 10^-5 M incubated for 48 hrs by sulforhodamine B assay relative to control; conditions: read-out: Activity
SN12C = assay: Growth inhibition of human SN12C cells assessed as cell growth at 10^-5 M incubated for 48 hrs by sulforhodamine B assay relative to control; conditions: read-out: Activity
MDA-MB-468 = assay: Growth inhibition of human MDA-MB-468 cells assessed as cell growth at 10^-5 M incubated for 48 hrs by sulforhodamine B assay relative to control; conditions: MDA-MB-468, 48 h, read-out: Activity
K562 = assay: Growth inhibition of human K562 cells assessed as cell growth at 10^-5 M incubated for 48 hrs by sulforhodamine B assay relative to control; conditions: K562, 48 h, read-out: Activity
CCRF-CEM = assay: Growth inhibition of human CCRF-CEM cells assessed as cell growth at 10^-5 M incubated for 48 hrs by sulforhodamine B assay relative to control; conditions: read-out: Activity
SNB-19 = assay: Growth inhibition of human SNB19 cells assessed as cell growth at 10^-5 M incubated for 48 hrs by sulforhodamine B assay relative to control; conditions: SNB-19, 48 h, read-out: Activity
SK-MEL-5 = assay: Growth inhibition of human SK-MEL-5 cells assessed as cell growth at 10^-5 M incubated for 48 hrs by sulforhodamine B assay relative to control; conditions: SK-MEL-5, 48 h, read-out: Activity
UACC-257 = assay: Growth inhibition of human UACC257 cells assessed as cell growth at 10^-5 M incubated for 48 hrs by sulforhodamine B assay relative to control; conditions: UACC-257, 48 h, read-out: Activity
NCI-H23 = assay: Growth inhibition of human NCI-H23 cells assessed as cell growth at 10^-5 M incubated for 48 hrs by sulforhodamine B assay relative to control; conditions: NCI-H23, 48 h, read-out: Activity
MDA-MB-231 = assay: Growth inhibition of human MDA-MB-231 cells assessed as cell growth at 10^-5 M incubated for 48 hrs by sulforhodamine B assay relative to control; conditions: MDA-MB-231, 48 h, read-out: Activity
NCI-H522 = assay: Growth inhibition of human NCI-H522 cells assessed as cell growth at 10^-5 M incubated for 48 hrs by sulforhodamine B assay relative to control; conditions: NCI-H522, 48 h, read-out: Activity
NCI-H460 = assay: Growth inhibition of human NCI-H460 cells assessed as cell growth at 10^-5 M incubated for 48 hrs by sulforhodamine B assay relative to control; conditions: NCI-H460, 48 h, read-out: Activity
NCI-H226 = assay: Growth inhibition of human NCI-H226 cells assessed as cell growth at 10^-5 M incubated for 48 hrs by sulforhodamine B assay relative to control; conditions: NCI-H226, 48 h, read-out: Activity
SW-620 = assay: Growth inhibition of human SW620 cells assessed as cell growth at 10^-5 M incubated for 48 hrs by sulforhodamine B assay relative to control; conditions: SW-620, 48 h, read-out: Activity
T47D = assay: Growth inhibition of human T47D cells assessed as cell growth at 10^-5 M incubated for 48 hrs by sulforhodamine B assay relative to control; conditions: read-out: Activity
ACHN = assay: Growth inhibition of human ACHN cells assessed as cell growth at 10^-5 M incubated for 48 hrs by sulforhodamine B assay relative to control; conditions: read-out: Activity

SMILES | growth at 10 µM (HT-29) [%] | growth at 10 µM (DU-145) [%] | growth at 10 µM (COLO 205) [%] | growth at 10 µM (OVCAR-8) [%] | growth at 10 µM (MOLT-4) [%] | growth at 10 µM (EKVX) [%] | growth at 10 µM (OVCAR-5) [%] | growth at 10 µM (M14) [%] | growth at 10 µM (A549) [%] | growth at 10 µM (SK-OV-3) [%] | growth at 10 µM (RPMI-8226) [%] | growth at 10 µM (LOX IMVI) [%] | growth at 10 µM (SN12C) [%] | growth at 10 µM (MDA-MB-468) [%] | growth at 10 µM (K562) [%] | growth at 10 µM (CCRF-CEM) [%] | growth at 10 µM (SNB-19) [%] | growth at 10 µM (SK-MEL-5) [%] | growth at 10 µM (NCI-H23) [%] | growth at 10 µM (MDA-MB-231) [%] | further results
c1ccc2c(c1)[nH]c1c(-c3ccc(-c4nccc5c4[nH]c4ccccc45)cc3)nccc12 | 88.9 | 122 | 92 | 111 | 97 | 89.5 | 110 | 99.3 | 115 | 88 | 97.4 | 89.4 | 94.5 | 105 | 93.8 | 106 | 106 | 79 | 77.7 | 111 | growth at 10 µM (IGROV-1): 88.8%; growth at 10 µM (UACC-257): 119%; growth at 10 µM (NCI-H522): 84.7%; growth at 10 µM (NCI-H460): 103%; growth at 10 µM (NCI-H226): 90.7%; growth at 10 µM (SW-620): 108%; growth at 10 µM (T47D): 75.8%; growth at 10 µM (ACHN): 99.5%
c1ccc2[nH]c(-c3ccc(C4NCCc5c4[nH]c4ccccc54)cc3)nc2c1 (centres undefined) | 94.2 | 113 | 98.3 | 99.2 | 107 | 103 | 94.2 | 96.6 | 82.9 | 95.6 | 97.3 | 98 | 93.8 | 94.7 | 88.2 | 103 | 100 | 96.5 | 102 | 92.2 | growth at 10 µM (NCI-H522): 83.5%; growth at 10 µM (NCI-H460): 104%; growth at 10 µM (NCI-H226): 93.5%; growth at 10 µM (SW-620): 99.1%; growth at 10 µM (T47D): 90.8%; growth at 10 µM (ACHN): 102%
Cc1n[nH]c2c1C(c1ccc(C3NCCc4c3[nH]c3ccccc43)cc1)C(C#N)=C(N)O2 (centres undefined) | 91.7 | 105 | 92.4 | 104 | 81.1 | 83.6 | 87.4 | 86.7 | 84.9 | 92 | 72.1 | 80.6 | 87 | 92.7 | 74.3 | 83.7 | 94.2 | 89.4 | 87.7 | 77.6 | growth at 10 µM (NCI-H522): 81.8%; growth at 10 µM (NCI-H460): 91.8%; growth at 10 µM (NCI-H226): 87%; growth at 10 µM (SW-620): 89.9%; growth at 10 µM (T47D): 75.2%; growth at 10 µM (ACHN): 83.5%
Cc1ccc(S(=O)(=O)N2CCc3c([nH]c4ccccc34)C2c2ccc(C=O)cc2)cc1 (centres undefined) | 87.2 | 101 | 92.1 | 98.2 | 95.9 | 87.4 | 78.7 | 85.8 | 92.8 | 88.5 | 99.1 | 85.5 | 87.7 | 102 | 106 | 106 | 91.3 | 89.8 | 85.7 | 73.4 | growth at 10 µM (IGROV-1): 86.5%; growth at 10 µM (UACC-257): 102%; growth at 10 µM (NCI-H522): 60.3%; growth at 10 µM (NCI-H460): 93%; growth at 10 µM (NCI-H226): 86.4%; growth at 10 µM (SW-620): 90.1%; growth at 10 µM (T47D): 89.1%; growth at 10 µM (ACHN): 79.1%
O=Cc1ccc(C2NCCc3c2[nH]c2ccccc32)cc1 (centres undefined) | 98.9 | 110 | 105 | 105 | 95.5 | 89.6 | 100 | 89.5 | 94.7 | 88.2 | 101 | 88.6 | 89 | 88.7 | 102 | 99.3 | 100 | 93 | 87.1 | 72.1 | growth at 10 µM (NCI-H522): 88%; growth at 10 µM (NCI-H460): 100%; growth at 10 µM (NCI-H226): 78.2%; growth at 10 µM (SW-620): 88.8%; growth at 10 µM (T47D): 92.3%; growth at 10 µM (ACHN): 95%

— ChEMBL document CHEMBL4004838, “Design and synthesis of novel phenyl -1, 4-beta-carboline-hybrid molecules as potential anticancer agents” (Eur J Med Chem, 2017)
